Here are results for 51 compounds from patent US8450361B2, “Substituted indole and azaindole oxoacetyl piperazinamide derivatives” (priority 2010, dated 2013).

For this assay, the system named is HIV-1. As to the kind of experiment: Single-round infectious HIV-1 luciferase reporter virus infection of HeLa CD4 cells. To be noted: Human immunodeficiency virus 1, HeLa, 72 h, read-out: EC50 Group from Table 1. It counts as cell-based. The protocol: • Virus production—Human embryonic Kidney cell line, 293T, was propagated in Dulbecco's Modified Eagle Medium (Invitrogen, Carlsbad, Calif.) containing 10% fetal Bovine serum (FBS, Sigma, St. Louis, Mo.). • Virus infection—Human epithelial cell line, HeLa, expressing the HIV-1 receptor CD4 was propagated in Dulbecco's Modified Eagle Medium (Invitrogen, Carlsbad, Calif.) containing 10% fetal Bovine serum (FBS, Sigma, St. Louis, Mo.) and supplemented with 0.2 mg/mL Geneticin (Invitrogen, Carlsbad, Calif.). Virus—Single-round infectious reporter virus was produced by co-transfecting human embryonic Kidney 293 cells with an HIV-1 envelope DNA expression vector and a proviral cDNA containing an envelope deletion mutation and the luciferase reporter gene inserted in place of HIV-1 nef sequences (Chen et al, Ref 41). Transfections were performed using lipofectAMINE PLUS reagent as described by the manufacturer (Invitrogen, Carlsbad, Calif.). Experiment • 1. HeLa CD4 cells were plated in 96 well plates at a cell density of 1×10^4 cells per well in 100 μl Dulbecco's Modified Eagle Medium containing 10% fetal Bovine serum and incubated overnight. • 2. Compound was added in a 2 μl dimethylsulfoxide solution, so that the final assay concentration would be ≦10 μM. • 3. 100 μl of single-round infectious reporter virus in Dulbecco's Modified Eagle Medium was then added to the plated cells and compound at an approximate multiplicity of infection (MOI) of 0.01, resulting in a final volume of 200 μl per well. • 4. Virally-infected cells were incubated at 37 degrees Celsius, in a CO2 incubator, and harvested 72 h after infection. • 5. Viral infection was monitored by measuring luciferase expression from viral DNA in the infected cells using a luciferase reporter gene assay kit, as described by the manufacturer (Roche Molecular Biochemicals, Indianapolis, Ind.). Infected cell supernatants were removed and 50 μl of lysis buffer was added per well. After 15 minutes, 50 μl of freshly-reconstituted luciferase assay reagent was added per well. Luciferase activity was then quantified by measuring luminescence using a Wallac microbeta scintillation counter. • 6. The percent inhibition for each compound was calculated by quantifying the level of luciferase expression in cells infected in the presence of each compound as a percentage of that observed for cells infected in the absence of compound and subtracting such a determined value from 100. • 7. An EC50 provides a method for comparing the antiviral potency of the compounds of this invention. The effective concentration for fifty percent inhibition (EC50) was calculated with the Microsoft Excel Xlfit curve fitting software. For each compound, curves were generated from percent inhibition calculated at 10 different concentrations by using a four parameter logistic model (model 205). Table 1 is the key for the data in Table 2. Results

Regarding `C[C@@H]1CN(C(=O)c2ccccc2)CCN1C(=O)C(=O)c1c[nH]c2c(NC(=O)CNC(C)(C)C)cccc12` [P-A-1], the concentration giving a half-maximal response (EC50) is less than 1000 nM.
The value for `C[C@@H]1CN(C(=O)c2ccccc2)CCN1C(=O)C(=O)c1c[nH]c2c(NC(=O)C[N+](C)(C)C)cccc12` [P-A-2] was less than 1000 nM.
For the compound `C[C@@H]1CN(C(=O)c2ccccc2)CCN1C(=O)C(=O)c1c[nH]c2c(NC(=O)CN(C)C)cccc12` [P-A-3], the EC50 is less than 1000 nM.
In the case of `CC(=O)OCC(=O)Nc1cccc2c(C(=O)C(=O)N3CCN(C(=O)c4ccccc4)C[C@H]3C)c[nH]c12` [P-A-4], the EC50 was less than 1000 nM.
The same measure for `CC(=O)Nc1cccc2c(C(=O)C(=O)N3CCN(C(=O)c4ccccc4)C[C@H]3C)c[nH]c12` [P-A-5]: less than 1000 nM.
The value for `COC(=O)CCC(=O)Nc1cccc2c(C(=O)C(=O)N3CCN(C(=O)c4ccccc4)C[C@H]3C)c[nH]c12` [P-A-7] was less than 1000 nM; that for `C[C@@H]1CN(C(=O)c2ccccc2)CCN1C(=O)C(=O)c1c[nH]c2c(NC(=O)CCC(=O)O)cccc12` [P-A-8] was less than 1000 nM.
The value for `C[C@@H]1CN(C(=O)c2ccccc2)CCN1C(=O)C(=O)c1c[nH]c2c(NC(=O)/C=C/C(=O)O)cccc12` [P-A-9] was less than 1000 nM; that for `C[C@@H]1CN(C(=O)c2ccccc2)CCN1C(=O)C(=O)c1c[nH]c2c(NC(=O)C3OC3C(=O)O)cccc12` (stereo partly drawn) [P-A-10] was less than 1000 nM; that for `COC(=O)[C@H]1OC(C)(C)O[C@@H]1C(=O)Nc1cccc2c(C(=O)C(=O)N3CCN(C(=O)c4ccccc4)C[C@H]3C)c[nH]c12` [P-A-13] was less than 1000 nM.
For the compound `C[C@@H]1CN(C(=O)c2ccccc2)CCN1C(=O)C(=O)c1c[nH]c2c(NC(=O)[C@H]3OC(C)(C)O[C@@H]3C(=O)O)cccc12` [P-A-14], the EC50 was less than 1000 nM.
In the case of `COC(=O)[C@@H]1OC(C)(C)O[C@H]1C(=O)Nc1cccc2c(C(=O)C(=O)N3CCN(C(=O)c4ccccc4)C[C@H]3C)c[nH]c12` [P-A-15], the EC50 was less than 1000 nM.
For `C[C@@H]1CN(C(=O)c2ccccc2)CCN1C(=O)C(=O)c1c[nH]c2c(NC(=O)[C@@H]3OC(C)(C)O[C@H]3C(=O)O)cccc12` [P-A-16], the EC50 is less than 1000 nM.
The same measure for `COC(=O)C(O)C(O)C(=O)Nc1cccc2c(C(=O)C(=O)N3CCN(C(=O)c4ccccc4)C[C@H]3C)c[nH]c12` (stereo partly drawn) [P-A-17]: less than 1000 nM; for `C[C@@H]1CN(C(=O)c2ccccc2)CCN1C(=O)C(=O)c1c[nH]c2c(NC(=O)C(=O)O)cccc12` [P-A-18]: less than 1000 nM.
The value for `C[C@@H]1CN(C(=O)c2ccccc2)CCN1C(=O)C(=O)c1c[nH]c2c(NC(=O)c3ccccn3)cccc12` [P-A-20] was less than 1000 nM.
The same measure for `C[C@@H]1CN(C(=O)c2ccccc2)CCN1C(=O)C(=O)c1c[nH]c2c(NC(=O)c3ccno3)cccc12` [P-A-21]: less than 1000 nM; for `C[C@@H]1CN(C(=O)c2ccccc2)CCN1C(=O)C(=O)c1c[nH]c2c(NC(=O)c3cccc(B(O)O)c3)cccc12` [P-A-22]: less than 1000 nM.
As to `C[C@@H]1CN(C(=O)c2ccccc2)CCN1C(=O)C(=O)c1c[nH]c2c(NC(=O)c3ccc(B(O)O)cc3)cccc12` [P-A-23], the EC50 is less than 1000 nM.
The same measure for `CC(=O)Nc1ccc(F)c2c(C(=O)C(=O)N3CCC(=C(C#N)c4ccccn4)CC3)c[nH]c12` [P-B-1]: less than 1000 nM.
The same measure for `CC(=O)Nc1ccc(F)c2c(C(=O)C(=O)N3CCN(C(=O)c4ccccc4)CC3)c[nH]c12` [P-B-2]: less than 1000 nM; for `CC(=O)Nc1ccc(F)c2c(C(=O)C(=O)N3CC/C(=C(\C#N)c4ccccc4)CC3C)c[nH]c12` (stereo not drawn) [P-B-3]: less than 1000 nM.
The value for `CC(=O)Nc1ccc(F)c2c(C(=O)C(=O)N3CCC(=C(C#N)c4ccccc4)CC3)c[nH]c12` [P-B-4] was less than 1000 nM.
Take `CC(=O)Nc1ccc(F)c2c(C(=O)C(=O)N3CCC(=C(C#N)c4cccnc4)CC3)c[nH]c12` [P-B-5]: the EC50 was less than 1000 nM.
For `CC(=O)Nc1ccc(F)c2c(C(=O)C(=O)N3CCC(=C(C#N)c4ccncc4)CC3)c[nH]c12` [P-B-6], the EC50 was less than 1000 nM.
The value for `CC(=O)Nc1ccc(F)c2c(C(=O)C(=O)N3CC/C(=C(\C#N)c4cccnc4)CC3C)c[nH]c12` (stereo not drawn) [P-B-7] was less than 1000 nM.
For the compound `CCOC(=O)CNC(=O)Nc1cccc2c(C(=O)C(=O)N3CCN(C(=O)c4ccccc4)C[C@H]3C)c[nH]c12` [P-C-1], the EC50 was less than 1000 nM.
Consider `CCOC(=O)CCNC(=O)Nc1cccc2c(C(=O)C(=O)N3CCN(C(=O)c4ccccc4)C[C@H]3C)c[nH]c12` [P-C-2], for which the EC50 is less than 1000 nM.
Take `CCOC(=O)CCNC(=O)Nc1cccc2c(C(=O)C(=O)N3CCC(=C(C#N)c4ccccc4)CC3)c[nH]c12` [P-C-3]: the concentration for a half-maximal effect (EC50) was less than 1000 nM.
The value for `COC(=O)CCCNC(=O)Nc1cccc2c(C(=O)C(=O)N3CCN(C(=O)c4ccccc4)C[C@H]3C)c[nH]c12` [P-C-4] was less than 1000 nM.
The same measure for `CCOC(=O)CCCNC(=O)Nc1cccc2c(C(=O)C(=O)N3CCN(C(=O)c4ccccc4)C[C@H]3C)c[nH]c12` [P-C-5]: less than 1000 nM; for `CCOC(=O)CCCNC(=O)Nc1cccc2c(C(=O)C(=O)N3CCC(=C(C#N)c4ccccc4)CC3)c[nH]c12` [P-C-6]: less than 1000 nM.
For `CCOC(=O)CCCCCNC(=O)Nc1cccc2c(C(=O)C(=O)N3CCN(C(=O)c4ccccc4)C[C@H]3C)c[nH]c12` [P-C-7], the EC50 is less than 1000 nM.
The same measure for `CCOC(=O)CCCCCNC(=O)Nc1cccc2c(C(=O)C(=O)N3CCC(=C(C#N)c4ccccc4)CC3)c[nH]c12` [P-C-8]: less than 1000 nM; for `COC(=O)c1ccccc1NC(=O)Nc1cccc2c(C(=O)C(=O)N3CCN(C(=O)c4ccccc4)C[C@H]3C)c[nH]c12` [P-C-9]: less than 1000 nM; for `CCOC(=O)c1ccccc1NC(=O)Nc1cccc2c(C(=O)C(=O)N3CCN(C(=O)c4ccccc4)C[C@H]3C)c[nH]c12` [P-C-10]: less than 1000 nM.
The value for `CCOC(=O)c1ccccc1NC(=O)Nc1cccc2c(C(=O)C(=O)N3CCC(=C(C#N)c4ccccc4)CC3)c[nH]c12` [P-C-11] was less than 1000 nM; that for `CCOC(=O)c1cccc(NC(=O)Nc2cccc3c(C(=O)C(=O)N4CCN(C(=O)c5ccccc5)C[C@H]4C)c[nH]c23)c1` [P-C-12] was less than 1000 nM.
As for `CCOC(=O)c1cccc(NC(=O)Nc2cccc3c(C(=O)C(=O)N4CCC(=C(C#N)c5ccccc5)CC4)c[nH]c23)c1` [P-C-13], the EC50 was less than 1000 nM.
Regarding `CCOC(=O)c1ccc(NC(=O)Nc2cccc3c(C(=O)C(=O)N4CCN(C(=O)c5ccccc5)C[C@H]4C)c[nH]c23)cc1` [P-C-14], the EC50 was less than 1000 nM.
The same measure for `CCOC(=O)c1ccc(NC(=O)Nc2cccc3c(C(=O)C(=O)N4CCC(=C(C#N)c5ccccc5)CC4)c[nH]c23)cc1` [P-C-15]: less than 1000 nM; for `COC(=O)c1cc(NC(=O)Nc2cccc3c(C(=O)C(=O)N4CCN(C(=O)c5ccccc5)C[C@H]4C)c[nH]c23)cc(C(=O)OC)c1` [P-C-16]: less than 1000 nM.
The value for `COC(=O)c1cc(NC(=O)Nc2cccc3c(C(=O)C(=O)N4CCC(=C(C#N)c5ccccc5)CC4)c[nH]c23)cc(C(=O)OC)c1` [P-C-17] was less than 1000 nM; that for `COS(=O)(=O)c1ccc(NC(=O)Nc2cccc3c(C(=O)C(=O)N4CCC(=C(C#N)c5ccccc5)CC4)c[nH]c23)cc1` [P-C-18] was less than 1000 nM.
The same measure for `C[C@@H]1CN(C(=O)c2ccccc2)CCN1C(=O)C(=O)c1c[nH]c2c(NC(=O)Nc3ccc(S(=O)(=O)O)cc3)cccc12` [P-C-19]: less than 1000 nM.
As for `N#CC(=C1CCN(C(=O)C(=O)c2c[nH]c3c(NC(=O)Nc4ccc(S(=O)(=O)O)cc4)cccc23)CC1)c1ccccc1` [P-C-20], the EC50 was less than 1000 nM.
The same measure for `CCN(CC)S(=O)(=O)c1ccc(NC(=O)Nc2cccc3c(C(=O)C(=O)N4CCC(=C(C#N)c5ccccc5)CC4)c[nH]c23)cc1` [P-C-21]: less than 1000 nM; for `C[C@@H]1CN(C(=O)c2ccccc2)CCN1C(=O)C(=O)c1c[nH]c2c(NC(=O)Nc3ccc(C#N)cc3)cccc12` [P-C-22]: less than 1000 nM.
The same measure for `N#CC(=C1CCN(C(=O)C(=O)c2c[nH]c3c(NC(=O)Nc4ccc(C#N)cc4)cccc23)CC1)c1ccccc1` [P-C-23]: less than 1000 nM.
`C[C@@H]1CN(C(=O)c2ccccc2)CCN1C(=O)C(=O)c1c[nH]c2c(NC(=O)NC3CCN(C(=O)C(F)(F)F)CC3)cccc12` [P-C-24]: the EC50 was less than 1000 nM.
The value for `N#CC(=C1CCN(C(=O)C(=O)c2c[nH]c3c(NC(=O)NC4CCN(C(=O)C(F)(F)F)CC4)cccc23)CC1)c1ccccc1` [P-C-25] was less than 1000 nM.
